# Test results as given in patent US7067694B2, “Halogen-substituted amino dicarboxylic acid derivatives as medicaments for treating cardiovascular diseases” (Bayer Aktiengesellschaft, priority 2001, dated 2006).
# Columns and labels:
# [1] = tested on: arteria saphena rings; assay: Vasorelaxant effect in vitro (phenylephrine-contracted rabbit arteria saphena rings); assay type: cell-based, Rabbits; settings: Oryctolagus cuniculus, contraction by phenylephrine, 37° C., 0.1% DMSO, read-out: IC50, concentration necessary to reduce the height of the contraction control value by 50%
# Protocol: Vasorelaxant Effect in vitro
# Rabbits are anesthetized or killed by intravenous injection of thiopental sodium (about 50 mg/kg) and exsanguinated. The arteria saphena is removed and divided into rings 3 mm wide. The individual rings are in each case mounted on a pair of hooks of triangular shape, open at the ends and made of special wire (Remanium®) having a diameter of 0.3 mm. Under pretension, each ring is introduced into a 5 ml organ bath containing carbogen-gassed Krebs-Henseleit solution at 37° C. with the following composition (mM): NaCl: […]; KCl: 4.8; CaCl2×2H2O: 1; MgSO4×7H2O: 1.4; KH2PO4: 1.2; NaHCO3: 25; glucose: 10; bovine serum albumin: 0.001%. The force of contraction is detected with Statham UC2 cells, amplified and digitized via A/D converters (DAS-1802 HC, Keithley Instruments, Munich) and recorded in parallel on chart recorders. Contractions are generated by adding phenylephrine.
# After several (generally 4) control cycles, the substance to be investigated is added in each further run in increasing dosage, and the height of the contraction reached under the influence of the test substance is compared with the height of the contraction reached in the last preceding run. The concentration necessary to reduce the height of the control value by 50% (IC50) is calculated from this. The standard application volume is 5 μl. The DMSO content in the bath solution corresponds to 0.1%.
IC50 [1],melting point,Structure (SMILES)
1.1 nM,> 250 °C,"O=C(O)CCCCN(CCc1ccc(F)cc1OCc1ccc(C2CCCCC2)cc1)Cc1ccc(C(=O)O)cc1 [Example 1, 4-{[(4-carboxybutyl)(2-{2-[(4-cyclohexylbenzyl)oxy]-4-fluorophenyl}ethyl)amino]methyl}benzoic acid]"
1.5 nM,,O=C(O)CCCCN(CCc1cc(F)ccc1OCc1ccc(C2CCCCC2)cc1)Cc1ccc(C(=O)O)cc1 [Example 2]
1 nM,,O=C(O)CCCCN(CCc1cc(Cl)ccc1OCc1ccc(-c2ccc(C(F)(F)F)cc2)cc1)Cc1ccc(C(=O)O)cc1 [Example 3]
8.1 nM,,O=C(O)CCCCN(CCc1cc(Cl)ccc1OCc1ccc(-c2ccc(Cl)cc2)cc1)Cc1ccc(C(=O)O)cc1 [Example 6]
8.3 nM,,COc1ccc(-c2ccc(COc3ccc(Cl)cc3CCN(CCCCC(=O)O)Cc3ccc(C(=O)O)cc3)c(Cl)c2)cc1 [Example 9]
